Laboratory results reported in patent publication US20250213563A1, “SUBSTITUTED PYRIMIDIN-4(3H)-ONES FOR USE IN TREATING CANCER” (NAVIRE PHARMA, INC., priority 2021, published 2025).

Legend:
[1] = Single-dose pharmacokinetics, Beagle dog; type: in vivo, male); details: free base; for AUC(0-t): read-out: AUC0→24
Experimental: The pharmacokinetic (PK) parameters of Compound (10b) (freebase) were determined following single intravenous (IV) and oral (PO) administration in female CD-1 mouse, female C57BL/6 mouse (PO only), male Sprague Dawley rat, male Beagle dog, and male Cynomolgus monkey. Additional evaluation of the PK properties of Compound (10b) was obtained following single dose PO administration in female CD-1 mouse, male Sprague Dawley rat and male Beagle dog over a dose range spanning 10 to 300 mg/kg (mouse and rat) and 1 to 100 mg/kg (dog). The intravenous dose solutions were prepared in 20% DMSO-60% PEG400-20% water and the oral dose solutions as suspensions in 0.5% methylcellulose in water, unless otherwise noted. Plasma concentration profiles were generated from serial sampling in individual animals up to 24 hours post dose, except for the studies in mice where composite sampling methods were used (i.e. 3 sampling times per mouse; 9 mice per group). […] Exposures increased with increasing dose level across species, in a dose-proportional manner in mouse and dog, and in a greater than dose-proportional manner in rat (80× increase in AUC with a 30× increase in dosage).

[2] = test system: HCC827; assay: 3D cell viability (CellTiter-Glo); type: cell-based; details: Homo sapiens, 192 h; HCC827, EGFR^Ex19del; 8 days of treatment; read-out: 3D CTG (IC50)
Experimental: (§1) The potency of Compound (10b) in a panel of human tumor cell lines with active MAPK signaling was assessed. Cell viability in a 3D culture system was assessed by measuring CellTiter-Glo (CTG) luminescence following 8 days of treatment with nine concentrations of Compound (10b). MAPK pathway signaling was assessed by measuring pERK protein levels and DUSP6 mRNA levels by homogeneous time resolved fluorescence (HTRF) and quantitative polymerase chain reaction (qPCR), respectively. […] These viability effects correlated with pERK inhibition (Table 2, FIG. 6B) and DUSP6 inhibition (FIG. 6C).

[3] = test system: NCI-H1299; assay: 3D cell viability (CellTiter-Glo); type: cell-based; details: Homo sapiens, 192 h; NCI-H1299, NRAS^Q61K; 8 days of treatment; read-out: 3D CTG (IC50)
Experimental: as §1

[4] = test system: NCI-H358; assay: DUSP6 mRNA levels (qPCR); type: cell-based; details: Homo sapiens; NCI-H358, KRAS^G12C
Experimental: as §1

[5] = test system: KYSE-520; assay: DUSP6 mRNA levels (qPCR); type: cell-based; details: Homo sapiens; KYSE-520, EGFR^amp
Experimental: as §1

[6] = test system: panel of 73 receptors and ion channels and 12 additional enzymes; assay: Eurofins Cerep off-target panel; details: 10 μM
Experimental: In addition to the kinase and phosphatase screens, Compound (10b) (10 μM) was tested against a panel of 73 receptors and ion channels and 12 additional enzymes using the Eurofins Cerep platform. In this screen, inhibition or stimulation of >50% is considered to be a significant effect.

[7] = test system: panel of 419 human kinases; assay: KINOMEscan competition binding panel; details: 1 μM; 419 kinases tested
Experimental: (§2) Activity of Compound (10b) (1 μM) was assessed against a panel of 419 human kinases (including a set of disease-relevant mutant variants). Assays were conducted using the KINOMEscan™ platform from DiscoverX which measures compound interaction with kinases using active site-directed competition binding assays. Displacement of ligand binding to the kinase by <35% of the control value is considered significant. Of the 419 kinases tested, only 4 kinases reached this level of displacement: Protein kinase C eta (PRKCH), 34% control; Large tumor suppressor kinase 1 (LATS1), 32% control; General control nonderepressible 2 kinase (GCN2), 21% control; and Hematopoietic Progenitor Kinase 1 (HPK1), 4.4% control.

[8] = Phase 1/1B first-in-human study, safety and PK (Cohorts 1-5); type: in vivo; design: Cmax/D / AUC/D: unit not given beside the values; details: for AUC/D: calculated using AUClast; for AUC(0-t) / Cmax / Tmax / half-life: human, plasma
From the text: The initial results were from Cohorts 1-5 of the Phase 1/1B First-in-Human Study of Example 6.
No safety findings impacting the risk or benefit of compound (10b) reported in the 19 patients dosed. Nine (9) treatment-emergent serious adverse events (SAEs) were reported in 7 patients, none of which were deemed related to the treatment with compound (10b).

[9] = test system: General control nonderepressible 2 kinase (GCN2); assay: KINOMEscan competition binding; design: species or system human; details: 1 μM
Experimental: as §2

[10] = male, Beagle, dog, plasma, IV 1 mg/kg
[11] = male, Beagle, dog, plasma, oral 10 mg/kg
[12] = 250 mg QD, C1D1, N=2 (1 subject excluded)
[13] = oral, 80 mg, 80 mg QD, C1D1, N=1
[14] = oral, 80 mg, 80 mg QD, C2D1, N=1
[15] = oral, 150 mg, 150 mg QD, C1D1, N=3
[16] = oral, 150 mg, 150 mg QD, C2D1, N=3
[17] = oral, 250 mg, 250 mg QD, C1D1, N=2 (1 subject excluded)
[18] = oral, 250 mg, 250 mg QD, C2D1, N=1
[19] = oral, 400 mg, 400 mg QD, C1D1, N=5
[20] = oral, 400 mg, 400 mg QD, C2D1, N=3
[21] = oral, 550 mg, 550 mg QD, C1D1, N=6

SMILES: Cc1c(N2CCC3(CC2)CO[C@@H](C)[C@H]3N)nc(C)n(-c2cccc(Cl)c2Cl)c1=O (atropisomer, axis not shown; (Ra)) [Compound (10b), 6-((3S,4S)-4-amino-3-methyl-2-oxa-8-azaspiro[4.5]decan-8-yl)-3-(Ra)-(2,3-dichlorophenyl)-2,5-dimethylpyrimidin-4(3H)-one]
- half-life [1, 10]: 8.23 h
- AUC(0-t) [1, 10]: 3.91 µM·h
- clearance ([1]; male, Beagle, dog, plasma, IV 1 mg/kg, read-out: Clp (converted)): 8.5 mL/min/kg
- Vd ([1]; male, Beagle, dog, plasma, IV 1 mg/kg, read-out: Vdss): 5.46 L/kg
- Cmax [1, 11]: 6.37 µM
- Tmax [1, 11]: 0.83 h
- AUC(0-t) [1, 11]: 48.2 µM·h
- F ([1]; oral 10 mg/kg): 115%
- IC50 [2]: 1200 nM
- IC50 [3]: > 25000 nM
- IC50 [4]: 820 nM
- IC50 [5]: 60 nM
- inhibition or stimulation of >50% [6]: No effects of this magnitude were observed
- number of kinases with displacement <35% of control [7]: 4
- Cmax/D ([8]; 80 mg QD, C1D1, N=1): 5.06
- AUC/D ([8]; 80 mg QD, C1D1, N=1): 61.1
- P/T Ratio ([8]; 80 mg QD, C2D1, N=1): 6.82
- Cmax/D ([8]; 150 mg QD, C1D1, N=3): 4.34
- AUC/D ([8]; 150 mg QD, C1D1, N=3): 64.3
- P/T Ratio ([8]; 150 mg QD, C2D1, N=3): 3.19
- Cmax/D [8, 12]: 3.19
- AUC/D [8, 12]: 42.4
- P/T Ratio ([8]; 250 mg QD, C2D1, N=1): 2.81
- Cmax/D ([8]; 400 mg QD, C1D1, N=5): 3.85
- AUC/D ([8]; 400 mg QD, C1D1, N=5): 47.0
- P/T Ratio ([8]; 400 mg QD, C2D1, N=3): 3.42
- Cmax/D ([8]; 550 mg QD, C1D1, N=6): 4.63
- AUC/D ([8]; 550 mg QD, C1D1, N=6): 68.6
- Number of patients (n = 19) with TEAE: Constipation ([8]; Cohorts 1-5): 1
- Number of patients (n = 19) with TEAE: Diarrhea ([8]; Cohorts 1-5): 5
- Number of patients (n = 19) with TEAE: Edema ([8]; Cohorts 1-5): 4
- Number of patients (n = 19) with TEAE: LFT increases ([8]; Cohorts 1-5): 2
- Number of patients (n = 19) with TEAE: LVEF decrease ([8]; Cohorts 1-5): 1
- Number of patients (n = 19) with TEAE: Nausea/vomiting ([8]; Cohorts 1-5): 4
- Number of patients (n = 19) with TEAE: Rash ([8]; Cohorts 1-5): 2
- adverse events leading to study discontinuation ([8]; Cohorts 1-5): No adverse events (AEs) led to study discontinuation
- dose-limiting toxicity (DLTs) ([8]; Cohorts 1-5): no dose-limiting toxicity and None
- number of patients with treatment-emergent SAEs ([8]; Cohorts 1-5, 19 patients dosed): 7
- number of treatment-emergent serious adverse events (SAEs) ([8]; Cohorts 1-5, 19 patients dosed): 9
- treatment-emergent SAEs deemed related to the treatment ([8]; Cohorts 1-5, 19 patients dosed): none
- tolerability ([8]; Cohorts 1-5: 80, 150, 250, 400, 550 mg once daily, 19 patients): well tolerated
- AUC(0-t) [8, 13]: 4890 ng·h/mL
- Cmax [8, 13]: 405 ng/mL
- Tmax [8, 13]: 2 h
- AUC(0-t) [8, 14]: 6290 ng·h/mL
- Cmax [8, 14]: 622 ng/mL
- Tmax [8, 14]: 1 h
- half-life ([8]; oral, 80 mg, 80 mg QD, C2D1, N=1, read-out: t1/2 (converted)): 10 h
- AUC(0-t) [8, 15]: 9650 ng·h/mL
- Cmax [8, 15]: 651 ng/mL
- Tmax [8, 15]: 2 h
- half-life ([8]; oral, 150 mg, 150 mg QD, C2D1, N = 1, read-out: t1/2 (converted)): 10.1 h
- AUC(0-t) [8, 16]: 18200 ng·h/mL
- Cmax [8, 16]: 1120 ng/mL
- Tmax [8, 16]: 3.33 h
- half-life ([8]; oral, 250 mg, 250 mg QD, C1D1, N = 1, read-out: t1/2 (converted)): 9.44 h
- AUC(0-t) [8, 17]: 10600 ng·h/mL
- Tmax [8, 17]: 3 h
- Cmax ([8]; oral, 250 mg, 250 mg QD, C1D1, N=2 (1 subject with active gastritis excluded)): 797 ng/mL
- AUC(0-t) [8, 18]: 21600 ng·h/mL
- Cmax [8, 18]: 1380 ng/mL
- Tmax [8, 18]: 2 h
- half-life ([8]; oral, 400 mg, 400 mg QD, C1D1, N = 1, read-out: t1/2 (converted)): 10.1 h
- AUC(0-t) [8, 19]: 18800 ng·h/mL
- Cmax [8, 19]: 1540 ng/mL
- Tmax [8, 19]: 3 h
- half-life ([8]; oral, 400 mg, 400 mg QD, C2D1, N = 1, in parentheses: interpret with caution (large extrapolated AUC), read-out: t1/2 (converted)): 12.3 h
- AUC(0-t) [8, 20]: 32000 ng·h/mL
- Cmax [8, 20]: 2270 ng/mL
- Tmax [8, 20]: 3 h
- AUC(0-t) [8, 21]: 37700 ng·h/mL
- Cmax [8, 21]: 2550 ng/mL
- Tmax [8, 21]: 2.67 h
- half-life ([8]; oral, read-out: Human Half life): 10 to 16 h
- half-life ([8]; po, 80 mg, 80 mg QD, C1D1, N=1, in parentheses: interpret with caution (large extrapolated AUC), read-out: t1/2 (converted)): 14.9 h
- half-life ([8]; po, 150 mg, 150 mg QD, C1D1, N=3, in parentheses: interpret with caution (large extrapolated AUC), read-out: t1/2 (converted)): 15.6 h
- half-life ([8]; po, 550 mg, 550 mg QD, C1D1, N=6, in parentheses: interpret with caution (large extrapolated AUC), read-out: t1/2 (converted)): 13.5 h
- ligand binding, % control [9]: 21 % control
